The nature of one data set: method code SF-AS, from Cloux, J.; Crommen, J.; Delarge, J.; Pirard, M.; Thunus, L. (1988). Attempts at calculating hydrophobic constant of the sulfonylurea group. J Pharm Belg, 43(3)141-151.
Settings: not given
By logP is commonly meant the decadic logarithm of the partition coefficient of the neutral form, usually between octanol and water. As for `CC(C)NC(=O)NS(=O)(=O)c1ccccc1`, the logP is 1.34. Turning to `CCN(CC)C(=O)NS(=O)(=O)c1ccccc1`, the logP was 0.99. Take `CCNC(=O)NS(=O)(=O)c1ccccc1`: the logP is 0.9.

`CC(C)(C)NC(=O)NS(=O)(=O)c1ccccc1`: the logP is 1.95.

In the case of `CCCNC(=O)NS(=O)(=O)c1ccccc1`, the logP was 1.44.

Take `NC(=O)NS(=O)(=O)c1ccccc1`: the logP was 0.28. For `CN(C)C(=O)NS(=O)(=O)c1ccccc1`, the logP was 0.28.

Staying with this data set, now noted: pH 3.5.
By logD is commonly meant lipophilicity at a set pH, counting ionised and neutral species. Take `NC(=O)NS(=O)(=O)c1cccnc1`: the logD was -0.65.

`CNC(=O)NS(=O)(=O)c1cccnc1`: the log distribution coefficient (logD) was -0.45.

Experiment in the next data set: not given
Settings: not given
`CNC(=O)N(C)S(=O)(=O)c1cccnc1` came in with a logP of 0.42.

Consider `CNC(=O)N(C)S(=O)(=O)Cc1ccccc1`, for which the logP turned out to be 1.18. The compound `CN(C)C(=O)NS(=O)(=O)Cc1ccccc1` registered a logP of 0.54. Compound `CNC(=O)NS(=O)(=O)Cc1ccccc1` showed a logP of 0.54. Compound `NC(=O)NS(=O)(=O)Cc1ccccc1` returned a logP of 0.28.

Source of the values: the SangsterLogP compilation.
